From patent US10689365B2, “Substituted 2-alkylimidazolylcarboxamides as pesticides” (Bayer CropScience Aktiengesellschaft, priority 2016, dated 2020)
Read-outs that look alike come from different tables or passages of the source.

Assays:
Myzus persicae [1] = test: Myzus persicae - spray test (Chinese cabbage leaf discs); format: in vivo; details: Myzus persicae, foliar; application rate 500 g/ha, after 5-6 days; read-out: efficacy
Procedure, shortened: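 Chinese cabbage leaf discs carrying all aphid stages were sprayed with compound dissolved in acetone/dimethylformamide and diluted in water with 1000 ppm alkylaryl polyglycol ether emulsifier. Efficacy was recorded after 5-6 days as % aphids killed (100% = all, 0% = none).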

Myzus persicae [2] = test: Myzus persicae - oral test; format: in vivo; details: Myzus persicae, po, 120 h; application rate 20 ppm, after 5 days; read-out: efficacy
Procedure, shortened: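 Aphid feeding test: compound dissolved in acetone, diluted with water and mixed with IPL41 insect medium plus sugar, offered through parafilm to a mixed population of green peach aphids. Mortality scored after 5 days as % efficacy (100% = all aphids dead, 0% = none dead).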

Myzus persicae [3] = test: Myzus persicae - spray test (MYZUPE), Chinese cabbage leaf discs; format: in vivo; details: foliar; for percent efficacy (aphid mortality) at 100 g/ha: 100 g of ai/ha; for percent efficacy (aphid mortality) at 20 g/ha: 20 g of ai/ha
Protocol: Myzus persicae—Spray Test (MYZUPE)
Solvent: 78.0 parts by weight of acetone • • 1.5 parts by weight of dimethylformamide
(§1) Emulsifier: alkylaryl polyglycol ether
To produce a suitable active compound preparation, 1 part by weight of active compound is dissolved using the stated parts by weight of solvent and made up with water containing an emulsifier concentration of 1000 ppm until the desired concentration is attained. To produce further test concentrations, the formulation is diluted with emulsifier-containing water.
Discs of Chinese cabbage leaves (Brassica pekinensis) infested by all stages of the green peach aphid (Myzus persicae) are sprayed with an active compound preparation of the desired concentration.
(§2) After the desired period of time, the efficacy in % is determined. 100% means that all the aphids have been killed; 0% means that no aphids have been killed.

Myzus persicae [4] = test: Myzus persicae - oral test (MYZUPE O); format: in vivo; details: read-out: % efficacy
Protocol: Myzus persicae—Oral Test (MYZUPE O)
Solvent: 100 parts by weight of acetone
To produce a suitable preparation of active compound, 1 part by weight of active compound is dissolved using the specified parts by weight of solvent and made up with water until the desired concentration is attained.
50 μl of the active compound preparation are transferred into microtitre plates and made up to a final volume of 200 μl with 150 μl of IPL41 insect medium (33%+15% sugar). Subsequently, the plates are sealed with parafilm, which a mixed population of green peach aphids (Myzus persicae) within a second microtitre plate is able to puncture and imbibe the solution through it.
as §2

Myzus persicae [5] = test: Myzus persicae - spray test (MYZUPE S), bell pepper plants; format: in vivo; details: 144 h, 6 dat, read-out: % efficacy
Protocol: Myzus persicae—Spray Test (MYZUPE S)
(§3) Solvent: 14 parts by weight of dimethylformamide
as §1
To produce a suitable active compound preparation, 1 part by weight of active compound is dissolved with the specified parts by weight of solvent and made up with water containing an emulsifier concentration of 1000 ppm until the desired concentration is attained. To produce further test concentrations, the formulation is diluted with emulsifier-containing water. If the addition of ammonium salts or/and penetrants is required, these are each added in a concentration of 1000 ppm to the formulation solution.
Bell pepper plants (Capsicum annuum) severely infested with the green peach aphid (Myzus persicae) are treated by spraying with the active ingredient formulation in the desired concentration.
After the desired time, the kill in % is determined. 100% means that all the animals have been killed; 0% means that no animals have been killed.

Myzus persicae [6] = test: Myzus persicae - drench test (MYZUPE D), Savoy cabbage in soil; format: in vivo; details: 240 h, 10 dat, read-out: % efficacy
Protocol: Myzus persicae—Drench Test (MYZUPE D)
To produce a suitable active compound preparation, 1 part by weight of active compound is mixed with the specified amounts of solvent and emulsifier, and the concentrate is diluted with water to the desired concentration, it being necessary to include the volume of soil which is drenched in the calculation. It should be ensured that a concentration of 40 ppm of emulsifier in the soil is not exceeded. To produce further test concentrations, water is used for dilution.
Savoy cabbage (Brassica oleracea) in pots with soil and infested by all stages of the green peach aphid (Myzus persicae) is watered with an active compound preparation of the desired concentration.
as §2

Aphis gossypii = Aphis gossypii - spray test (APHIGO S), cotton plants; format: in vivo; details: 144 h, 6 dat, read-out: % efficacy
Protocol: Aphis gossypii—Spray Test (APHIGO S)
as §3, §1
To produce a suitable active compound preparation, 1 part by weight of active compound is dissolved using the stated parts by weight of solvent and made up with water containing an emulsifier concentration of 1000 ppm until the desired concentration is attained. To produce further test concentrations, the formulation is diluted with emulsifier-containing water. If the addition of ammonium salts or/and penetrants is required, these are each added in a concentration of 1000 ppm to the formulation solution.
Cotton plants (Gossypium hirsutum) heavily infested by the cotton aphid (Aphis gossypii) are sprayed with an active ingredient formulation of the desired concentration.
After the desired time, the kill in % is determined. 100% means that all the aphids have been killed; 0% means that no aphids have been killed.

[7] = log P by HPLC on reversed-phase (C18) columns, OECD Guideline 117; format: physicochemical; details: reversed-phase (C18) HPLC column
Procedure, shortened: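 Reversed-phase C18 HPLC per OECD 117, LC-MS with a linear 10% to 95% acetonitrile gradient. Acidic method at pH 2.7 with 0.1% formic acid; neutral method at pH 7.8 with 0.001 M ammonium hydrogencarbonate.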

[8] = acidic range, pH 2.7, 0.1% aqueous formic acid/acetonitrile, read-out: logP[a]
[9] = neutral range, pH 7.8, aqueous ammonium hydrogencarbonate/acetonitrile, read-out: logP[n]

Row | SMILES | pest or weed control at 500 g/ha (Myzus persicae [1]) [%] | pest or weed control at 20 ppm (Myzus persicae [2]) [%] | percent efficacy (aphid mortality) at 100 g/ha (Myzus persicae [3]; 120 h, 5 dat) [%] | Emax at 4 ppm (Myzus persicae [4]; 120 h, 5 dat) [%] | Emax at 0.16 ppm (Myzus persicae [5]) [%] | Emax at 0.16 ppm (Myzus persicae [6]) [%] | Emax at 0.8 ppm (Aphis gossypii; 0.8 ppm) [%] | Emax at 4 ppm (Aphis gossypii; 4 ppm) [%] | chromatographic logP [7, 8] | chromatographic logP [7, 9] | percent efficacy (aphid mortality) at 20 g/ha (Myzus persicae [3]; 120 h, 5 dat) [%] | percent efficacy (aphid mortality) at 100 g/ha (Myzus persicae [3]; 144 h, 6 dat) [%] | Emax at 4 ppm (Myzus persicae [4]; 144 h, 6 dat) [%] | percent kill (mortality) of aphids at a fixed dose at 0.8 ppm (Aphis gossypii; 0.8 ppm) [%] | percent kill (mortality) of aphids at a fixed dose at 4 ppm (Aphis gossypii; 4 ppm) [%]
1 | CC(C)SCc1ncc(C(=O)N(C)c2cccnc2)n1C [Example I-1-29, 2-[(Isopropylsulphanyl)methyl]-N,1-dimethyl-N-(pyridin-3-yl)-1H-imidazole-5-carboxamide] | 90 | 100 | 90 | 100 | 99 | 98 | 98 | 100 | 0.76 | 1.5 |  |  |  |  | 
2 | CC(C)S(=O)(=O)Cc1ncc(C(=O)N(C)c2cccnc2)n1C [Example I-1-30, 2-[(Isopropylsulphonyl)methyl]-N,1-dimethyl-N-(pyridin-3-yl)-1H-imidazole-5-carboxamide] | 90 | 100 | 90 | 100 | 98 | 98 | 100 | 100 | 0.56 | 0.88 | 90 |  |  |  | 
3 | CC(C)CSCc1ncc(C(=O)N(C)c2cccnc2)n1C [Example I-1-31, 2-[(isobutylsulphanyl)methyl]-N,1-dimethyl-N-(pyridin-3-yl)-1H-imidazole-5-carboxamide] | 100 | 100 | 90 | 100 | 99 | 95 | 100 | 100 | 1.18 | 1.84 | 90 |  |  |  | 
4 | CC(C)CS(=O)(=O)Cc1ncc(C(=O)N(C)c2cccnc2)n1C [Example I-1-32] | 90 | 100 | 70 | 100 | 98 | 98 | 98 | 97 | 1.05 | 1.26 |  |  |  |  | 
5 | CN(C(=O)c1cnc(CS(=O)(=O)C(C)(C)C)n1C)c1cccnc1 [Example I-1-34] | 100 | 100 | 90 | 100 | 45 | 90 | 85 | 95 | 0.75 | 1.03 | 90 |  |  |  | 
6 | CN(C(=O)c1cnc(CSCC2CC2)n1C)c1cccnc1 [Example I-1-35] | 100 | 100 | 90 | 100 | 100 | 98 | 99 | 100 | 0.96 | 1.57 | 90 |  |  |  | 
7 | CN(C(=O)c1cnc(CSCC(C)(C)C)n1C)c1cccnc1 [Example I-1-36] | 90 | 100 | 90 | 100 | 75 | 80 | 98 | 98 | 1.42 | 2.06 | 90 |  |  |  | 
8 | CN(C(=O)c1cnc(Cn2nccn2)n1C)c1cccnc1 [Example I-1-47] | 100 | 100 |  |  | 90 | 90 | 100 | 100 | 0.35 | 0.75 |  | 90 | 100 |  | 
9 | CN(C(=O)c1cnc(CS(=O)(=O)CC2CC2)n1C)c1cccnc1 [Example I-1-48] | 100 | 100 | 100 | 100 | 99 | 90 |  |  | 0.71 | 1.04 | 100 |  |  | 100 | 100
10 | CCSCc1ncc(C(=O)N(CC)c2cccnc2)n1C [Example I-1-49] | 90 | 100 | 70 | 100 | 95 | 95 | 98 | 100 | 0.71 |  | 70 |  |  |  | 
